Measured values published in patent US20100266504A1, “CONDENSED PYRIDINE DERIVATIVE AND USE THEREOF” (priority 2007, published 2010).
Structures can show the parent of a compound that is named as a salt. Where two headings read alike, the source gives them in different places.

Experiments:
[1] = tested on: spinal cord-transected female rats under urethane anesthesia; test: leak point pressure by high speed infusion method, serotonin 5-HT2C receptor agonists (Experimental Example 3); conditions: for change of leak point pressure (cmH2O): i.v., mean ± SEM; for effect on leak point pressure (in words): intravenous administration
Method: SD female rats (body weight 180-350 g) were anesthetized with urethane (Wako Pure Chemical Industries, Ltd.), and the spinal cord was cut at T8-9 level to eliminate the micturition reflex. During the operation, halothane (Takeda Pharmaceutical Company Limited) anesthesia was added as necessary. The rats were fixed at a dorsal position, and two catheters (PE-100; Clay Adams) were indwelled in the bladder. One of the catheters was filled with saline stained with Evans Blue dye (Merck), and connected to a 50 ml syringe (TERUMO CORPORATION) fixed on an infusion pump (KD Scientific) via a three-way cock. The other catheter was connected to a pressure transducer (DX-100; NIHON KOHDEN CORPORATION), and signals of the transducer were transmitted to computer via an amplifier (blood pressure amplification unit AP-641G; NIHON KOHDEN CORPORATION) and a data analyzer (BIOPAC; MP100), and recorded on a hard disk. The data was analyzed on the computer using a software (BIOPAC; AcqKnowledge). Saline was injected into the bladder using the infusion pump at a rate of 360 ml/hr, infusion was stopped on the moment fluid leakage from the urethral meatus was observed, and the solution in the bladder was discharged by opening the three-way cock. The maximum intravesical pressure during infusion was taken as a leak point pressure, which was measured repeatedly until the value was stabilized, and the average value of the last three measures was taken as the data. […] All the drugs were dissolved in DMA/PEG400 (1:1) and intravenously administered at 0.5 ml/kg.

[2] = molecular target: serotonin 5-HT2C receptor (isoform type VSV, stably expressing CHO cell) (Homo sapiens, UniProt P28335, I156V/I160V/N158S); test: cell-based; conditions: for Emax: CHO, read-out: ratio relative to maximum response by 5-HT (1 μM); for ratio relative to maximum response by 5-HT (1 μM): hydrochloride
[3] = tested on: spinal cord transected female rats whose hypogastric nerve and pudendal nerves were bilaterally cut; test: urethral closure response induced by increased intravesical pressure (Experimental Example 5); conditions: for urethral closure response (cmH2O) after drug administration: i.v., 10 min after administration; for urethral closure response (cmH2O) after drug administration / urethral closure response (cmH2O) before drug administration: mean ± SEM, n=5; for urethral closure response (cmH2O) before drug administration: i.v. group; for effect on urethral closure response induced by increased intravesical pressure (in words): intravenous administration
Method: Female SD rats (body weight 200-310 g) were anesthetized with urethane (Wako Pure Chemical Industries, Ltd.), and the spinal cord was transected at T8-9 level to eliminate the micturition reflex. During the operation, halothane (Takeda Pharmaceutical Company Limited) anesthesia was added when necessary. After abdominal section, bladder neck was ligated with a suture thread, and then the hypogastric nerve and pudendal nerve were bilaterally transected. A catheter (PE-90, Clay Adams) was placed in the bladder, and the other end of the bladder catheter was connected to a pressure transducer and a water reservoir (60 ml syringe) of saline via a three-way cock. A microtip transducer catheter (SPR-524, Millar Instruments Inc.) was inserted toward the bladder from the urethral orifice, and adjusted using a scale on the catheter surface so that the transducer part is positioned in the urethra at 10.0-15.0 mm from the urethral orifice.
The changes in the topical pressure within the urinary tract (hereinafter conveniently indicated as urethral pressure) as measured by the microtip transducer was transmitted to a computer via an amplifier (blood pressure amplification unit AP-641G; NIHON KOHDEN) and a data analyzer (MP-100; biopack; sampled at 500 Hz), and recorded on a hard disc. […] The reaction of the urinary tract induced by an increased intravesical pressure was measured 3 times, and the average of the last 2 measures was taken as the value before drug administration. The evaluation item was reflex urethral closure response, and the recorded values were subjected to smoothing process at 500 points to calculate an average urethral pressure per 1 sec, after which the value immediately before increase in the intravesical pressure was subtracted from the maximum value on increase in the intravesical pressure and taken as the urethral closure response. […] The drugs were all dissolved in N,N-dimethylformamide/polyethylene glycol 400 (1:1) and administered intravenously at a volume of 0.5 ml/kg.

[4] = tested on: spinal cord-transected female rats under urethane anesthesia; conditions: before vs after administration
Method: SD female rats (body weight 180-350 g) were anesthetized with urethane (Wako Pure Chemical Industries, Ltd.), and the spinal cord was cut at T8-9 level to eliminate the micturition reflex. During the operation, halothane (Takeda Pharmaceutical Company Limited) anesthesia was added as necessary. The rats were fixed at a dorsal position, and two catheters (PE-100; Clay Adams) were indwelled in the bladder. One of the catheters was filled with saline stained with Evans Blue dye (Merck), and connected to a 50 ml syringe (TERUMO CORPORATION) fixed on an infusion pump (KD Scientific) via a three-way cock. The other catheter was connected to a pressure transducer (DX-100; NIHON KOHDEN CORPORATION), and signals of the transducer were transmitted to computer via an amplifier (blood pressure amplification unit AP-641G; NIHON KOHDEN CORPORATION) and a data analyzer (BIOPAC; MP100), and recorded on a hard disk. The data was analyzed on the computer using a software (BIOPAC; AcqKnowledge). Saline was injected into the bladder using the infusion pump at a rate of 360 ml/hr, infusion was stopped on the moment fluid leakage from the urethral meatus was observed, and the solution in the bladder was discharged by opening the three-way cock. The maximum intravesical pressure during infusion was taken as a leak point pressure.

Chain of serotonin 5-HT2C receptor (isoform type VSV, stably expressing CHO cell) (P28335 33-458 I156V/N158S/I160V limits assumed): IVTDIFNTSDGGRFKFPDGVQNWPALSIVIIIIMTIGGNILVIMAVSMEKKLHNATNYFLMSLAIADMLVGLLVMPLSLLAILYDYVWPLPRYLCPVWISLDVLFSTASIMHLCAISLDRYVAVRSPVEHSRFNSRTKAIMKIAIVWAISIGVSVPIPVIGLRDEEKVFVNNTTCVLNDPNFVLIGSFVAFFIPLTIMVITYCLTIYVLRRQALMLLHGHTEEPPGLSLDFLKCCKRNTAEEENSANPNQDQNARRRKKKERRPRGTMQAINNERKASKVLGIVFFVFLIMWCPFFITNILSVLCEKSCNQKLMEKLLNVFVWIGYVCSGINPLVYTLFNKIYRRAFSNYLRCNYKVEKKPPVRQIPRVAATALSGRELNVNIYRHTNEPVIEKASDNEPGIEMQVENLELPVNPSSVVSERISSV

O=C1Nc2cc(Cl)c(Cl)cc2N2CCNCC12 (centres unmarked) [WAY-161503]
change of leak point pressure (cmH2O) ([1]; 0.03 mg/kg): 7.4 ± 3.8 cmH2O
change of leak point pressure (cmH2O) ([1]; 0.3 mg/kg): 12.8 ± 1.0 cmH2O
effect on leak point pressure (in words) [1]: increased the leak point pressure in a dose-dependent manner

CC(C)N(C)c1ccc2c(n1)CCNC2 [Example 17, N-Isopropyl-N-methyl-5,6,7,8-tetrahydro-1,6-naphthyridin-2-amine hydrochloride]
Emax [2]: 100%

CC1CNCc2ccc(N3CCOC[C@H]3C)nc21 (stereo in doubt) [Example 75, (8R*)-8-Methyl-2-[(3R)-3-methylmorpholin-4-yl]-5,6,7,8-tetrahydro-1,6-naphthyridine hydrochloride]
Emax [2]: 103%

Fc1ccc(-c2ccc3c(n2)CCNC3)cc1 [Example 27, 2-(4-Fluorophenyl)-5,6,7,8-tetrahydro-1,6-naphthyridine dihydrochloride]
Emax [2]: 91.7%

CC1CNCc2ccc(N(C)C(C)C)nc21 (single isomer, unassigned) [Example 79, (8R*)-N-Isopropyl-N,8-dimethyl-5,6,7,8-tetrahydro-1,6-naphthyridin-2-amine hydrochloride]
Emax [2]: 106%

c1cc2c(nc1N1CCOCC1)OCCNC2 [compound A, 8-morpholin-4-yl-2,3,4,5-tetrahydropyrido[3,2-f][1,4]oxazepine]
urethral closure response (cmH2O) after drug administration ([3]; 1 mg/kg): 7.5 ± 1.6 cmH2O
urethral closure response (cmH2O) before drug administration ([3]; baseline of the 1 mg/kg): 4.6 ± 0.8 cmH2O
effect on urethral closure response induced by increased intravesical pressure (in words) [3]: enhanced the urethral closure response
change of leak point pressure (cmH2O) ([1]; 0.1 mg/kg): 8.4 ± 5.0 cmH2O
change of leak point pressure (cmH2O) ([1]; 1 mg/kg): 10.3 ± 2.4 cmH2O
change of leak point pressure (cmH2O) ([1]; 3 mg/kg): 25.7 ± 8.7 cmH2O
effect on leak point pressure (in words) [1]: increased the leak point pressure in a dose-dependent manner

C[C@H]1CNCCc2ccc(Cl)cc21 [APD-356]
urethral closure response (cmH2O) after drug administration ([3]; 1 mg/kg): 8.6 ± 2.7 cmH2O
urethral closure response (cmH2O) before drug administration ([3]; baseline of the 1 mg/kg): 5.3 ± 1.7 cmH2O
effect on urethral closure response induced by increased intravesical pressure (in words) [3]: enhanced the urethral closure response
change of leak point pressure (cmH2O) ([1]; 0.1 mg/kg): 5.2 ± 2.6 cmH2O
change of leak point pressure (cmH2O) ([1]; 1 mg/kg): 19.2 ± 3.1 cmH2O
change of leak point pressure (cmH2O) ([1]; 3 mg/kg): 28.9 ± 3.3 cmH2O
effect on leak point pressure (in words) [1]: increased the leak point pressure in a dose-dependent manner

CC1CNCc2ccc(N(C)C(C)C)nc21 (single isomer, unassigned) [Example 80, (8S*)-N-Isopropyl-N,8-dimethyl-5,6,7,8-tetrahydro-1,6-naphthyridin-2-amine hydrochloride]
ratio relative to maximum response by 5-HT (1 μM) [2]: 102

CC(C)Oc1ccc2c(n1)CCNC2 [Example 30, 2-Isopropoxy-5,6,7,8-tetrahydro-1,6-naphthyridine hydrochloride]
Emax [2]: 97.8%

CNCC[C@H](Oc1cccc2ccccc12)c1cccs1 [duloxetine]
change of leak point pressure (cmH2O) ([4]; 1 mg/kg, i.v., mean ± SEM, n=5): 11.4 ± 2.4 cmH2O
effect on leak point pressure (in words) ([4]; intravenous administration): significantly increased the leak point pressure

c1cc(-c2ccc3c(n2)CCNC3)co1 [Example 26, 2-(3-Furyl)-5,6,7,8-tetrahydro-1,6-naphthyridine dihydrochloride]
Emax [2]: 98.2%

CC1CNCc2ccc(N3CCOCC3)nc21 (centres unmarked) [Example 5, 8-Methyl-2-morpholin-4-yl-5,6,7,8-tetrahydro-1,6-naphthyridine dihydrochloride]
Emax [2]: 101%

CSc1ccc(-c2ccc3c(n2)CCNC3)cc1 [Example 28, 2-[4-(Methylthio)phenyl]-5,6,7,8-tetrahydro-1,6-naphthyridine dihydrochloride]
Emax [2]: 102%

CC(C)c1ccc2c(n1)CCNC2 [Example 24, 2-Isopropyl-5,6,7,8-tetrahydro-1,6-naphthyridine hydrochloride]
Emax [2]: 101%

CC1CNCc2ccc(N(C)C(C)C)nc21 (centres unmarked) [Example 53, N-Isopropyl-N,8-dimethyl-5,6,7,8-tetrahydro-1,6-naphthyridin-2-amine hydrochloride]
Emax [2]: 91%

FC(F)(F)c1ccc(-c2ccc3c(n2)CCNC3)cc1 [Example 29, 2-[4-(Trifluoromethyl)phenyl]-5,6,7,8-tetrahydro-1,6-naphthyridine dihydrochloride]
Emax [2]: 97%

CC1CNCc2ccc(N3CCOC[C@H]3C)nc21 (stereo in doubt) [Example 76, (8S*)-8-Methyl-2-[(3R)-3-methylmorpholin-4-yl]-5,6,7,8-tetrahydro-1,6-naphthyridine hydrochloride]
ratio relative to maximum response by 5-HT (1 μM) [2]: 105

c1cc2c(nc1N1CCOCC1)CCNC2 [Example 6, 2-Morpholin-4-yl-5,6,7,8-tetrahydro-1,6-naphthyridine]
Emax [2]: 100%

C[C@H]1COCCN1c1ccc2c(n1)CCNC2 [Example 8, 2-[(3S)-3-Methylmorpholin-4-yl]-5,6,7,8-tetrahydro-1,6-naphthyridine hydrochloride]
Emax [2]: 90.8%

C[C@@H]1COCCN1c1ccc2c(n1)CCNC2 [Example 7, 2-[(3R)-3-Methylmorpholin-4-yl]-5,6,7,8-tetrahydro-1,6-naphthyridine hydrochloride]
Emax [2]: 95.6%

CC1CNCc2ccc(N3CCOC[C@H]3C)nc21 (stereo partly drawn) [Example 48, 8-Methyl-2-[(3R)-3-methylmorpholin-4-yl]-5,6,7,8-tetrahydro-1,6-naphthyridine hydrochloride]
Emax [2]: 95.5%

CCN(C)c1ccc2c(n1)CCNC2 [Example 15, N-Ethyl-N-methyl-5,6,7,8-tetrahydro-1,6-naphthyridin-2-amine hydrochloride]
Emax [2]: 102%

CC(Oc1ccc2c(n1)CCNC2)C1CC1 (centres unmarked) [Example 31, 2-(1-Cyclopropylethoxy)-5,6,7,8-tetrahydro-1,6-naphthyridine hydrochloride]
Emax [2]: 88.4%

CC1CCNCc2ccc(N3CCOCC3)nc21 (centres unmarked) [Example 2, 9-Methyl-2-morpholin-4-yl-6,7,8,9-tetrahydro-5H-pyrido[3,2-c]azepine hydrochloride]
Emax [2]: 92.8%

CC1CNCc2ccc(N3CCOCC3)nc21 (single isomer, unassigned) [Example 74, (8S*)-8-Methyl-2-morpholin-4-yl-5,6,7,8-tetrahydro-1,6-naphthyridine hydrochloride]
ratio relative to maximum response by 5-HT (1 μM) [2]: 103

CC1CNCc2ccc(N3CCOCC3)nc21 (single isomer, unassigned) [Example 73, (8R*)-8-Methyl-2-morpholin-4-yl-5,6,7,8-tetrahydro-1,6-naphthyridine hydrochloride]
Emax [2]: 101%

CC1CNCc2ccc(-c3ccc(F)cc3)nc21 (centres unmarked) [Example 4, 2-(4-Fluorophenyl)-8-methyl-5,6,7,8-tetrahydro-1,6-naphthyridine hydrochloride]
Emax [2]: 101%

c1cc2c3c(c1)[C@H]1CCC[C@H]1N3CCNC2 [WAY-163909]
urethral closure response (cmH2O) after drug administration ([3]; 3 mg/kg): 10.2 ± 1.6 cmH2O
urethral closure response (cmH2O) before drug administration ([3]; baseline of the 3 mg/kg): 4.4 ± 0.8 cmH2O
effect on urethral closure response induced by increased intravesical pressure (in words) [3]: enhanced the urethral closure response
change of leak point pressure (cmH2O) ([1]; 0.1 mg/kg): 4.4 ± 1.6 cmH2O
change of leak point pressure (cmH2O) ([1]; 1 mg/kg): 12.9 ± 4.2 cmH2O
change of leak point pressure (cmH2O) ([1]; 3 mg/kg): 30.1 ± 2.6 cmH2O
effect on leak point pressure (in words) [1]: increased the leak point pressure in a dose-dependent manner

c1cc2c(nc1C1CC1)CCNC2 [Example 43, 2-Cyclopropyl-5,6,7,8-tetrahydro-1,6-naphthyridine hydrochloride]
Emax [2]: 97%
